According to patent publication US20070105160A1, “Detection of intracellular enzyme complex” (DiscoveRx, priority 2005, published 2007):

Key:
[1] = molecular target: glucocorticoid receptor (GR); assay: PathHunter GR translocation EFC assay, antagonist mode (pre-incubation before agonist); assay type: cell-based, human; details: pre-incubated 1 hour
Description: (§1) • 5 mM Potassium phosphate (dibasic) • 5 mM Potassium phosphate (monobasic) • 150 mM Sodium Chloride • 10 mM Magnesium Acetate • 2% CHAPS • pH6.9 Reagent Buffer/Substrate Formulation/Mixture Used in the Assay: • 1 part Galacton Star (ABI) • 5 parts Emerald II enhancer (ABI) • 19 parts Lysis buffer with 2% CHAPS (DX) Assay Protocol (96 Well Assay Format) • 1. 10,000 CHO-EA+GR-PL cells/well in a volume of 100 μL are plated in a Costar 96 well white, clear bottom plate and allowed to adhere overnight at 37° C./5% CO2 in an incubator. • 2. […] The reaction is incubated for 3-4 hours in a 37° C./5% CO2 incubator. • 4. To the reaction, equal aliquots from 50 mL of reagent solution are added to the wells. • 5. The plate is read on a standard multiwell plate reader that can measure luminescent activity. (e.g., Wallac Victor II or Packard Lumicount) after 30 and 60 minutes.
The glucocorticoid receptor (GR) was subcloned by using a pCMV-GR-PL construct generated by Panomics, Inc. as pcr template, adding Bgl 2 and Kpn I sites at the 5′ and 3′ ends respectively. The GR sequence was based on and confirmed to match the RefSeq NM_000176 for the human GR. […] This plasmid was transiently transfected into a stable CHO-K1+EA-NLS/NRS expressing cell line. Clonal selection for cells expressing both EA-NLS/NRS and GR-PL was performed as described above except the cells were subjected to double antibiotic selection (hygromycin and Geneticin/G418).
(§2) 10,000 cells/well were plated in a white Costar® 96 well plate and allowed to adhere overnight. […] To the reaction, 50 μL of cell lysis/substrate solution was added and the plate was read in a Wallace Victor 2 plate reader after 60 minutes. […] Antagonist studies were also performed using titrating amounts of geldenamycin (1-1000 nM) pre-incubated with the PathHunter cells for 1 hour prior to being treated with an agonist (at the EC80 concentration) for 3 hours and the EFC activity was measured.

[2] = molecular target: T1, glucocorticoid receptor (GR) (Homo sapiens, UniProt P04150); assay: PathHunter GR translocation EFC assay, agonist mode, chemiluminescent detection; assay type: cell-based; details: CHO-EA+GR-PL (PathHunter) cells, agonist 3 hours, plate read after 60 minutes, FIG. 1
T1 construct: expressed in transfected cells; host or cells: CHO-K1 stably expressing EA-NLS/NRS (CHO-EA+GR-PL, 'PathHunter' cells)
T1 sequence (P04150 1-777): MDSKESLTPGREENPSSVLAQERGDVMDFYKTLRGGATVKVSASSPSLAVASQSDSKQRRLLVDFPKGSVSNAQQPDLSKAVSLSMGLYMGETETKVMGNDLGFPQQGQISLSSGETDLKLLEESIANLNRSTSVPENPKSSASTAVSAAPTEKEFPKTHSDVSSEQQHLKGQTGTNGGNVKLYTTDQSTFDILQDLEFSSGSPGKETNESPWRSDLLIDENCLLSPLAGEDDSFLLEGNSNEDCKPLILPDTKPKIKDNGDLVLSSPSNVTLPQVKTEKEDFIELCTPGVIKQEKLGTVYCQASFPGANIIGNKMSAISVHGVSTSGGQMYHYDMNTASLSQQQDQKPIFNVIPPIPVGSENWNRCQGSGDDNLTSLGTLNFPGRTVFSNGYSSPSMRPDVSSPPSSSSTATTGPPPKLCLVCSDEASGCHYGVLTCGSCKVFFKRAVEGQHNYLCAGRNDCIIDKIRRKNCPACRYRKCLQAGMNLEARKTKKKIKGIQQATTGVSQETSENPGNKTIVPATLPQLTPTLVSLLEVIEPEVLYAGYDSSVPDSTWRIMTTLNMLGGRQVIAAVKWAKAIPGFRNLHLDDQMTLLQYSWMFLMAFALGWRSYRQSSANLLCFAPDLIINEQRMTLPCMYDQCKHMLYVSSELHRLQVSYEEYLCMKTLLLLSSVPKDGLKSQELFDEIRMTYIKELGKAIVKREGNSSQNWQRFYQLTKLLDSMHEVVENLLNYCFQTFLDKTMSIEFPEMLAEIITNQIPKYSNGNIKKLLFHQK
Description: as §1, with “minutes. […]” for “minutes.”
as §2

Row | IC50 ([1]; then 1 μM hydrocortisone as agonist for 3 hours) [nM] | IC50 ([1]; then 1 μM prednisolone as agonist for 3 hours) [nM] | IC50 ([1]; then dexamethasone treatment (EC80 concentration) for 3 hours, FIG. 2) [nM] | EC50 [2] [nM] | Compound
1 | 23.8 | 22.3 | 11.6 |  | COC1=C2C[C@@H](C)C[C@H](OC)[C@H](O)[C@@H](C)/C=C(\C)[C@H](OC(N)=O)[C@@H](OC)/C=C\C=C(/C)C(=O)NC(=CC1=O)C2=O [geldenamycin]
2 |  |  |  | 62.9 | C[C@]12C=CC(=O)C=C1CC[C@H]1[C@@H]3C[C@@H](O)[C@](O)(C(=O)CO)[C@@]3(C)C[C@H](O)[C@@]12F [triamcinolone]
